Activity calls are given as the source filed them. The rule behind the calls is not given here.
The molecules below were run on Quadruplex DNA (assay: Stabilization of c-Myc G-quadruplex DNA (unknown origin ) assessed as increase in melting temperature at 2 equivalent by CD spectroscopy). Conditions: dose 2.0 equiv.
Assay type: nucleic-acid assay

Which Activity does the source give for `Cc1onc(-c2c3ccccc3c(Oc3ccc(-c4ccccc4)cc3)c3ccccc23)c1C(=O)Nc1cc(C(=O)N(CCCN(C)C)CCCN(C)C)n(C)c1` here?
The Activity was “Active”.

The molecules below were run on SNB-19 (assay: Antitumor activity against human SNB-19 cells assessed as cell growth inhibition measured after 24 hrs by MTT colorimetric assay). Conditions: SNB-19, 24 h.
Assay type: functional, cell-based

`Cc1onc(-c2c3ccccc3c(Oc3cccc4ccccc34)c3ccccc23)c1C(=O)Nc1cc(C(=O)N(CCCN(C)C)CCCN(C)C)n(C)c1` was tested. Which IC50 did it give?
The IC50 was 1.07 µM.

With `Cc1onc(-c2c3ccccc3c(Oc3ccccc3)c3ccccc23)c1C(=O)Nc1cc(C(=O)N(CCCN(C)C)CCCN(C)C)n(C)c1` as the molecule, how does the IC50 read?
Its IC50 is 1.03 µM.

For `COc1ccc2c(OC)c3ccccc3c(-c3noc(C)c3C(=O)Nc3cc(C(=O)N(CCCN(C)C)CCCN(C)C)n(C)c3)c2c1`, which IC50 is on record?
The IC50 was 4.8 µM.

For `COc1ccc2c(OC)c3ccccc3c(-c3noc(C)c3C(=O)Nc3cc(C(=O)N(CCCN(C)C)CCCN(C)C)n(C)c3)c2c1Cl`, which IC50 is on record?
Its IC50 is 12.6 µM.

How did the IC50 turn out when `Cc1onc(-c2c3ccccc3c(Oc3ccc(-c4ccccc4)cc3)c3ccccc23)c1C(=O)Nc1cc(C(=O)N(CCCN(C)C)CCCN(C)C)n(C)c1` was run?
The IC50 was 0.58 µM.

`Cc1onc(-c2c3ccccc3c(Oc3ccc4ccccc4c3)c3ccccc23)c1C(=O)Nc1cc(C(=O)N(CCCN(C)C)CCCN(C)C)n(C)c1` was tested. Which IC50 did it give?
Its IC50 is 3.1 µM.

`COc1c2ccccc2c(-c2noc(C)c2C(=O)Nc2cc(C(=O)N(CCCN(C)C)CCCN(C)C)n(C)c2)c2ccccc12` was tested. Which IC50 did it give?
The IC50 was 7.77 µM.

— ChEMBL document CHEMBL5113475, “10-Alkoxy-anthracenyl-isoxazole analogs have sub-micromolar activity against a Glioblastoma multiforme cell line” (Bioorg Med Chem, 2022)
